Read-outs that look alike come from different tables or passages of the source. Values belong to the molecule of their own block, whether it stands above or below them.
Tests used:
[1] = test system: Cellulolytic Enzyme Composition #1; test: mini-scale PCS hydrolysis by Cellulolytic Enzyme Composition #1; type: biochemical, Trichoderma reesei; details: for cellobiose level in the hydrolysis products versus absence of the compounds: PCS hydrolysis; for Effect of chelator on enzyme in the absence of FeSO4: PCS hydrolysis (FIGS. 23A-23D)
Experimental: The effect of various salts (FeSO4, FeCl2, NaCl, Na2SO4, MnSO4, MnCl2) was determined in the hydrolysis of PCS by Cellulolytic Enzyme Composition #2. The PCS hydrolysis was performed in duplicate in capped 1.7 ml EPPENDORF® tubes (“mini-scale”) containing 1 ml suspensions of 43.4 g of PCS (dry weight) per liter, 10 mM salts in 50 mM sodium acetate pH 5. Cellulolytic Enzyme Composition #2 was added at 0.25 g per liter. Reactions without the addition of the salt served as controls. The capped tubes were incubated at 50° C. in an INNOVA® 4080 incubator shaker (New Brunswick Scientific Co., Inc., Edison, N.J., USA) at 150 rpm.
(§1) Aliquots of the suspensions, sampled over time, were filtered by centrifugation using a 0.45 μm MULTISCREEN® HV membrane (Millipore, Billerica, Mass., USA) at 2000 rpm for 15 minutes using a SORVALL® RT7 centrifuge (Thermo Fisher Scientific, Waltham, Mass., USA). When not used immediately, the filtered sugary aliquots were frozen at −20° C. Sugar concentrations of the samples diluted in 0.005 M H2SO4 were measured after elution from a 4.6×250 mm AMINEX® HPX-87H column (Bio-Rad, Hercules, Calif., USA) by 0.005 M H2SO4 at a flow rate of 0.4 ml/minute at 65° C. with quantitation by integration of glucose and cellobiose using refractive index detection (CHEMSTATION®, AGILENT® 1100 HPLC, Agilent Technologies, Santa Clara, Calif., USA) calibrated with standards of glucose and cellobiose. The resultant equivalents were used to calculate the percentage of cellulose conversion for each reaction.
Example 30 was repeated with both Cellulolytic Enzyme Composition #1 and Cellulolytic Enzyme Composition #2. Soluble reducing sugars were measured by HPLC as described in Example 30. Reactions without the addition of FeSO4 served as controls.
The hydrolysis was performed in a series of duplicate “mini-scale” hydrolysis reactions according to the procedure described in Example 30.

[2] = test system: Cellulolytic Enzyme Composition #1; test: mini-plate-scale PASC hydrolysis by Cellulolytic Enzyme Composition #1; type: biochemical, Trichoderma reesei; details: 10 mM; 2 g PASC and 0.01 g enzyme per liter
Experimental: (§2) Various (biologically common) divalent metal cations with variable ionic radii were tested in 2.8 ml Deep Well Microplates (VWR International, West Chester, Pa., USA) (“mini-plate-scale”) containing 1 ml suspensions of 25 g of AVICEL® per liter in 50 mM sodium acetate pH 5 at 50° C. Cellulolytic Enzyme Composition #1 was added at 0.25 g per liter for each hydrolysis. The mini-plates were sealed at 160° C. for 2 seconds using an ABGENE® ALPS 300™ sealer (ABgene, Rochester, N.Y., USA). The sealed mini-plates were incubated at 50° C. in an INNOVA® 4080 incubator shaker at 150 rpm. Soluble reducing sugars were measured by HPLC as described in Example 30.
In one series of “mini-scale” hydrolysis reactions performed according to the procedure described in Example 30, the effect of 1 mM to 10 mM FeSO4 was evaluated in the hydrolysis of AVICEL® by Cellulolytic Enzyme Composition #1. In a series of “mini-plate-scale” hydrolysis reactions performed according to the procedure described in Example 32, the effect of 1 mM to 10 mM FeSO4 was evaluated in the hydrolysis of PASC by Cellulolytic Enzyme Composition #1, except 2 g of PASC and 0.05 g Cellulolytic Enzyme Composition #1 per liter of 50 mM sodium acetate pH 5 were used.
The above study was extended to a range of concentration of Fe(II) and cellulose. In a series of “mini-plate-scale” hydrolysis reactions performed according to the procedure described in Example 32, except that 0.1 to 10 mM FeSO4, 0.6 to 4 g of PASC and 0.01 g of Cellulolytic Enzyme Composition #1 per liter of 50 mM sodium acetate pH 5 were used.

[3] = test system: Cellulolytic Enzyme Composition #1; test: Pre-incubation of iron ion with PASC or enzyme, then PASC hydrolysis; type: biochemical, Trichoderma reesei
Experimental: The “pre-incubation” study was also performed for the hydrolysis of PASC. The experiments were similar to those described above, except 2 g of PASC, replacing AVICEL®, and 0.01 g of Cellulolytic Enzyme Composition #1 per liter of 50 mM sodium acetate pH 5, and 3 days pre-incubation were used. All hydrolyses were performed using the “mini-plate-scale” hydrolysis reaction according to the procedure described in Example 32, except for the change in cellulose or cellulase described above.

[4] = cited from earlier work
[5] = test system: Cellulolytic Enzyme Composition #1; test: mini-plate-scale AVICEL hydrolysis by Cellulolytic Enzyme Composition #1; type: biochemical, Trichoderma reesei; details: for Effect on enzymatic cellulolysis: loss in initial rate / Effect on enzymatic cellulolysis: loss in extended hydrolysis extent: 10 mM, 25 g AVICEL and 0.25 g enzyme per liter, pH 5, 50° C.; for Effect on enzymatic cellulolysis: loss in extended hydrolysis extent: after 4 days
Experimental: as §2
Iron-chelator complexes of variable size or redox property were tested for their ability to inhibit enzymatic hydrolysis of cellulose. […]

[6] = test system: Cellulolytic Enzyme Composition #1; test: Pre-incubation of iron ion with AVICEL or enzyme, then AVICEL hydrolysis; type: biochemical, Trichoderma reesei
Experimental: To test whether Fe(II) affects cellulose or cellulase, 10 mM FeCl2 was pre-incubated with either 25 g of AVICEL® or 0.25 g of Cellulolytic Enzyme Composition #1 per liter of 50 mM sodium acetate pH 5 for three days. “Fe-pretreated” AVICEL® was washed and Cellulolytic Enzyme Composition #1 was gel-filtered using BioSpin 6 desalting columns (Bio-Rad, Hercules, Calif., USA) to remove residual Fe ion. Fe-pretreated AVICEL® was hydrolyzed with fresh Cellulolytic Enzyme Composition #1 or Cellulolytic Enzyme Composition #1 subjected to “FeCl2-less” pre-incubation and gel filtration. Fe-pretreated Cellulolytic Enzyme Composition #1 was applied to hydrolyze fresh AVICEL® or AVICEL® subjected to “FeCl2-less” pre-incubation and washing, in comparison with the hydrolysis of fresh AVICEL® ([…]) by fresh Cellulolytic Enzyme Composition #1 ([…]), with or without 10 mM FeCl2. All hydrolyses were performed using the “mini-plate-scale” hydrolysis reaction procedure described in Example 32, except for the change in cellulose or cellulase described above.
To test whether Fe(III) affected cellulose or cellulase, 10 mM FeCl3 was pre-incubated with either 25 g of AVICEL® or 0.25 g of Cellulolytic Enzyme Composition #1 per liter of 50 mM sodium acetate pH 5 for three days. All hydrolyses were performed using the “mini-plate-scale” hydrolysis reactions according to the procedure described in Example 32, except for the change in cellulose or cellulase described above.

[7] = test system: Cellulolytic Enzyme Composition #2; test: mini-plate-scale PCS hydrolysis by Cellulolytic Enzyme Composition #2 with H2O2 and ferric ion chelator; type: biochemical, Trichoderma reesei; details: for Effect on the inhibition by ferrous ion: 2.5 mM FeSO4, 10 mM H2O2 for 30 minutes, 10 mM desferrioxamine
Experimental: However, prior to the addition of Cellulolytic Enzyme Composition #2, the mixture of PCS and FeSO4 was treated with 10 mM H2O2 for 30 minutes. In some cases, 10 mM desferrioxamine was also added. Reactions without the addition of FeSO4 or H2O2 served as controls.

[8] = test system: Cellulolytic Enzyme Composition #2; test: mini-scale PCS hydrolysis by Cellulolytic Enzyme Composition #2; type: biochemical, Trichoderma reesei; details: 10 mM salt; 43.4 g PCS and 0.25 g enzyme per liter, 50 mM sodium acetate pH 5, 50° C.
Experimental: Corn stover was pretreated at the U.S. Department of Energy National Renewable Energy Laboratory (NREL), […], Colo., USA, using dilute sulfuric acid. The following conditions were used for the pretreatment: 1.4 wt % sulfuric acid at 195° C. for 4.5 minutes. According to limit digestion with excess cellulase enzymes, the water-insoluble solids in the pretreated corn stover (PCS) contained 59.5% cellulose. Prior to use, the PCS was washed with a large volume of deionized water until soluble acid and sugars were removed. The dry weight of the water-washed PCS was 19.16%.
The effect of various salts (FeSO4, FeCl2, NaCl, Na2SO4, MnSO4, MnCl2) was determined in the hydrolysis of PCS by Cellulolytic Enzyme Composition #2. […] Cellulolytic Enzyme Composition #2 was added at 0.25 g per liter. Reactions without the addition of the salt served as controls. The capped tubes were incubated at 50° C. in an INNOVA® 4080 incubator shaker (New Brunswick Scientific Co., Inc., Edison, N.J., USA) at 150 rpm.
as §1
The degree of cellulose conversion to glucose plus cellobiose (% conversion) was calculated using the following equation:
% Conversion=(glucose+cellobiose×1.053)(mg/ml)×100×162/cellulose(mg/ml)×180)=(glucose+cellobiose×1.053)(mg/ml)×100/(cellulose(mg/ml)×1.111)
In this equation the factor 1.111 reflects the weight gain in converting cellulose to glucose, and the factor 1.053 reflects the weight gain in converting cellobiose to glucose. Cellulose in PCS was determined by a limit digest of PCS to release glucose and cellobiose.

[9] = fresh salt, PASC, enzyme fresh or buffer pre-incubated
[10] = pre-incubated 3 days with Cellulolytic Enzyme Composition #1
[11] = 10 mM fresh salt, fresh AVICEL, fresh enzyme
[12] = 10 mM, pre-incubated three days with AVICEL
[13] = 10 mM, pre-incubated three days with Cellulolytic Enzyme Composition #1

Compound: c1cnc2c(c1)ccc1ncccc12 [1,7-Phenanthroline]
- cellobiose level in the hydrolysis products versus absence of the compounds [1]: about twice
- Effect of chelator on enzyme in the absence of FeSO4 [1]: essentially benign

- cellobiose level in the hydrolysis products versus absence of the compounds [1]: about twice
Compound: c1cnc2c(c1)ccc1cccnc12 [1,10-phenanthroline]
- Effect of chelator on enzyme in the absence of FeSO4 [1]: significant inhibition

Compound: [Cl][Fe]([Cl])[Cl] [Fe(III), FeCl3]
- loss of extent of hydrolysis after 4 days [2]: ~80%
- loss of initial hydrolysis rate [2]: ~80%
- loss in extent of hydrolysis [3, 9]: approximately 30%
- loss in initial rate [3, 9]: ~70%
- loss in extent of hydrolysis [3, 10]: no loss
- loss in initial rate [3, 10]: ~50%
- loss in extent of hydrolysis ([3]; pre-incubated 3 days with PASC): ~10%
- loss in initial rate ([3]; pre-incubated 3 days with PASC): ~50%
- Radius ([4]; ionic radii in crystals, 6-ligand coordination): 0.55 Å
- E° ([4]; single-electron redox potential vs NHE): 0.771 V
- Effect on enzymatic cellulolysis: loss in initial rate [5]: ~90% loss in initial rate, ~90% loss in extended hydrolysis extent
- Effect on enzymatic cellulolysis: loss in extended hydrolysis extent [5]: ~90% loss in initial rate, ~90% loss in extended hydrolysis extent
- Effect on enzymatic cellulolysis: loss in extended hydrolysis extent ([5]; listed as FeCl3): ~90%
- Effect on enzymatic cellulolysis: loss in initial rate ([5]; listed as FeCl3): ~90%
- IC50 ([5]; AVICEL hydrolysis, 0.2 to 2 mM inhibitor, read-out: I50): 500 ± 400 µM
- loss in extent of hydrolysis [6, 11]: ~90%
- loss in initial rate [6, 11]: ~90%
- loss in extent of hydrolysis [6, 12]: ~80%
- loss in initial rate [6, 12]: ~80%
- loss in extent of hydrolysis [6, 13]: ~20%
- loss in initial rate [6, 13]: ~20%

Compound: O=C([O-])CC(O)(CC(=O)[O-])C(=O)[O-].[Fe+3] [Fe(III)-citrate, Fe-citrate]
- E° ([4]; single-electron oxidation potential of iron-chelator complexes): −0.191^2 V
- Effect on hydrolysis of PCS ([7]; 1 and 10 mM): did not affect
- Effect on enzymatic cellulolysis: loss in initial rate [5]: No significant change
- Effect on enzymatic cellulolysis: loss in extended hydrolysis extent [5]: no change

Compound: [Cl][Fe][Cl] [FeCl2, ferrous chloride]
- loss of extent of hydrolysis after 4 days [2]: ~30%
- loss of initial hydrolysis rate [2]: ~30%
- loss in extent of hydrolysis [3, 9]: no loss
- loss in initial rate [3, 9]: approximately 30%
- loss in extent of hydrolysis [3, 10]: no loss
- loss in initial rate [3, 10]: ~70%
- loss in extent of hydrolysis ([3]; pre-incubated 3 days with PASC): no loss
- loss in initial rate ([3]; pre-incubated 3 days with PASC): ~60%
- Effect on PCS hydrolysis [8]: significant inhibition
- loss in extent of hydrolysis [6, 11]: ~50%
- loss in initial rate [6, 11]: ~50%
- loss in extent of hydrolysis [6, 12]: ~10%
- loss in initial rate [6, 12]: ~10%
- loss in extent of hydrolysis [6, 13]: ~20%
- loss in initial rate [6, 13]: ~20%

Compound: OO [H2O2, Hydrogen peroxide]
- Effect on the inhibition by ferrous ion [7]: reduced the inhibitory effect
- Effect on hydrolysis in the absence of Fe(II) ([7]; 10 mM H2O2 with or without 10 mM desferrioxamine (FIG. 22B)): only affected the hydrolysis slightly

Compound: CC(=O)N(O)CCCCCNC(=O)CCC(=O)N(O)CCCCCNC(=O)CCC(=O)N(O)CCCCCN [desferrioxamine]
- Effect on the inhibition by ferrous ion [7]: mitigated almost all
- increase in hydrolysis extent ([7]; 10 mM, alone): approximately 2%
